Measurements published in ChEMBL document CHEMBL3352145, “Structure-based design of novel human Pin1 inhibitors (III): optimizing affinity beyond the phosphate recognition pocket” (Bioorg Med Chem Lett, 2014).
Values after ≈ are worked out from the molar mass of the structure shown. One block for each compound: values may come before it. Active and inactive are the calls of the source. No cut-off for these calls is given here.

Key:
[1] = molecular target: Peptidyl-prolyl cis-trans isomerase NIMA-interacting 1 (Homo sapiens, UniProt Q13526); test: Inhibition of Pin1 (unknown origin)
Sequence of Peptidyl-prolyl cis-trans isomerase NIMA-interacting 1 (Q13526 whole entry): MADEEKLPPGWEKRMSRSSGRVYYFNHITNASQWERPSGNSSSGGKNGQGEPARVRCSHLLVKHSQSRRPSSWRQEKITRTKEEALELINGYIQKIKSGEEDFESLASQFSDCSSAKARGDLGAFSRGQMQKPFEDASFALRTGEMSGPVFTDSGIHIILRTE

[2] = Aqueous solubility of the compound; type: physicochemical; conditions: buffer
[3] = Dissociation constant, pKa of the compound; type: physicochemical
[4] = Lipophilicity, log P of the compound; type: physicochemical; conditions: octanol/water
HT-29 [5] = test: Antiproliferative activity against human HT-29 cells; type: functional, cell-based
HT-29 [6] = test: Cell cycle arrest in human HT-29 cells assessed as cells accumulation at G0/G1 phase at 50 uM by FACS analysis (reference value: 56.9%); type: functional
HT-29 [7] = test: Cell cycle arrest in human HT-29 cells assessed as cells accumulation at G2/M phase at 50 uM by FACS analysis (reference value: 6.2%); type: functional
HT-29 [8] = test: Cell cycle arrest in human HT-29 cells assessed as cells accumulation at sub G1 phase at 50 uM by FACS analysis (Rvb =<1%); type: functional
HT-29 [9] = test: Cell cycle arrest in human HT-29 cells assessed as cells accumulation at S phase at 50 uM by FACS analysis (reference value: 37%); type: functional
HT-29 [10] = test: Induction of histological changes in human HT-29 cells assessed as fragmented phenotype at 50 uM by DAPI staining; type: functional, cell-based

Ki [1]: 780 nM
SMILES: Cc1ccc2[nH]c(C[C@@H](NC(=O)c3ccc4ccccc4c3)C(=O)O)nc2c1

Ki [1]: 173 nM
SMILES: O=C(N[C@H](Cc1nc2cc(Cl)ccc2[nH]1)C(=O)O)c1ccc2ccccc2c1

Ki [1]: 10000 nM
SMILES: O=C(NC(Cc1cc2ccccc2o1)C(=O)O)c1ccc2ccccc2c1 (centres undefined)

solubility [2]: > 100 µg/mL | Ki [1]: 12 nM | pKa [3]: 3.9 | logP [4]: 3.6
SMILES: O=C(CC1c2ccccc2-c2ccccc21)N[C@H](Cc1cc2ccc(F)cc2[nH]1)C(=O)O

Ki [1]: 46000 nM
SMILES: O=C(N[C@H](Cc1nc2ccccc2s1)C(=O)O)c1ccc2ccccc2c1

solubility [2]: > 100 µg/mL | Ki [1]: 75 nM | pKa [3]: 3.9 | logP [4]: 3.5
SMILES: O=C(CCc1c(Cl)cccc1Cl)N[C@H](Cc1cc2ccc(F)cc2[nH]1)C(=O)O

Ki [1]: 580 nM | IC50 (HT-29 [5]): 1900 nM
SMILES: O=C(O)C1(Cc2cc3ccc(F)cc3[nH]2)CSC(/C=C/c2c(Cl)cccc2Cl)=N1 (racemic)

Ki [1]: 320 nM | IC50 (HT-29 [5]): 4200 nM
SMILES: O=C(O)C1(Cc2cc3ccc(F)cc3[nH]2)CSC(CC2c3ccccc3-c3ccccc32)=N1 (racemic)

solubility [2]: > 120 µg/mL | Ki [1]: 138 nM | pKa [3]: 3.92 | logP [4]: 2.59
SMILES: O=C(N[C@H](Cc1cc2ccc(F)cc2[nH]1)C(=O)O)c1ccc2ccccc2c1

Ki [1]: 1000 nM
SMILES: O=C(NC(Cc1nc2ccccc2[nH]1)C(=O)O)c1ccc2ccccc2c1 (racemic)

Ki [1]: 196 nM | IC50 (HT-29 [5]): 4600 nM
SMILES: O=C(O)C1(Cc2cc3ccc(F)cc3[nH]2)CSC(CCc2c(Cl)cccc2Cl)=N1 (racemic)

solubility [2]: 106 µg/mL (≈ 272 µM) | Ki [1]: 400 nM | pKa [3]: 3.91 | logP [4]: 2.49
SMILES: O=C(Cc1cccc2ccccc12)N[C@H](Cc1cc2ccc(F)cc2[nH]1)C(=O)O

Ki [1]: 189 nM
SMILES: O=C(N[C@H](Cc1nc2cc(Cl)ccc2[nH]1)C(=O)O)c1cc2ccccc2s1

Ki [1]: 76 nM
SMILES: O=C(N[C@H](Cc1nc2cc(F)ccc2[nH]1)C(=O)O)c1cc2ccccc2s1

Ki [1]: 424 nM
SMILES: Cc1ccc2[nH]c(C[C@@H](NC(=O)c3cc4ccccc4s3)C(=O)O)nc2c1

Ki [1]: 80 nM
SMILES: O=C(N[C@H](Cc1nc2cc(F)ccc2[nH]1)C(=O)O)c1ccc2ccccc2c1

Ki [1]: 1900 nM
SMILES: O=C(NC(Cc1cc2ccccc2[nH]1)C(=O)O)c1ccc2ccccc2c1 (centres undefined)

Ki [1]: 1360 nM | IC50 (HT-29 [5]): 27000 nM
SMILES: O=C(O)C1(Cc2cc3ccc(F)cc3[nH]2)CSC(c2ccc3ccccc3c2)=N1 (racemic)
Activity (HT-29 [6]): 10.2% | Activity (HT-29 [7]): 71.1% | Activity (HT-29 [8]): 5% | Activity (HT-29 [9]): 18.7% | Activity (HT-29 [10]): Active
